Earlier results on 1 substance are cited in patent US20210139999A1, “PROGNOSTIC AND TREATMENT RESPONSE PREDICTIVE METHOD” (Cancer Research Technology Limited, priority 2018, published 2021).

In the data set the test system is renal cancer. Particulars: 81 patients with response data, single agent arm.

Atezolizumab: the responders is on record as 25%.
